Reference: article PMC8155809 (The Journal of General Physiology, 2021)

Target: T1, Human TREK-2 (KCNK10) crystal construct (Homo sapiens, UniProt P57789)
T1 construct: “crystal construct” protein (Gly67 to Glu340); made in house
T1 sequence (P57789 67-340 isoform P57789-4): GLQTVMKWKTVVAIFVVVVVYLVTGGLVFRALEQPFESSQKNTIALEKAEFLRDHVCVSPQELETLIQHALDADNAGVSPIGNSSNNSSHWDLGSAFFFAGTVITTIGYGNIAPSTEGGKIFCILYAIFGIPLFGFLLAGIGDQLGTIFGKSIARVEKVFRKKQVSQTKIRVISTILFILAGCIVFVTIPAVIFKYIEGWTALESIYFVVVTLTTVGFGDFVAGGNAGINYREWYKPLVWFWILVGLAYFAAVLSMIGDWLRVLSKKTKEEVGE
Assay: Single-channel recordings of purified TREK-2 reconstituted in lipid bilayers
Type: biochemical
Details: for Po (single-channel open probability) / block of channel (Po): 10 µM NFx; for Po (single-channel open probability): +60 mV; for AC1, area of closed state 1 / AC2, area of closed state 2 / AC3, area of closed state 3 / AC4, area of closed state 4 / AC5, area of closed state 5 / τC1, mean lifetime of closed state 1 / τC2, mean lifetime of closed state 2 / τC3, mean lifetime of closed state 3 / τC4, mean lifetime of closed state 4 / τC5, mean lifetime of closed state 5 / τO, mean open time: 100 μM NFx
Protocol: Human TREK-2 (KCNK10) “crystal construct” protein (Gly67 to Glu340) was expressed and purified as previously described ([Dong et al., 2015]), with the exception that it was purified in 1% wt/vol n-octyl-β-D-glucoside, 0.1% wt/vol cholesteryl hemisuccinate. 1,2-Diphytanoyl-sn-glycero-3-phosphocholine was dissolved in chloroform to a concentration of 10 mM and stored at −20°C. The GUVs were then made by electroformation in a 1 M sorbitol solution using Vesicle Prep Pro (Nanion Technologies). Purified TREK-2 was then mixed with GUVs to a final concentration of ∼1–5 µg/ml and incubated overnight at 4°C with 0.5 mg/ml Bio-Beads (Bio-Rad) before use.
All electrophysiological recordings were performed with the Nanion Port-a-Patch system connected to an Axopatch 200B amplifier via a Digidata 1440A digitizer (Molecular Devices). Data were filtered at 5 kHz and recorded at a 200-kHz sampling rate with program Clampex (Molecular Devices). Experiments were performed in symmetrical 200 mM KCl and 10 mM HEPES (pH 6.0 with KOH) solutions. Single-channel currents were idealized using 50% threshold criterion with program Clampfit (Molecular Devices) at an imposed resolution of 50 µs. Only one open and one closed level were considered in the analysis; all subconductance states were neglected (these typically comprised less than 1% of open- and closed-level events of channels in the “high PO” mode). Analysis of amplitude and dwell-time distributions was performed in Origin (OriginLab Corporation) and an in-house software written in Mathematica (Wolfram Technologies). Empirical correction for open times due to missed events was performed as described previously ([Davies et al., 1992]). Critical time for burst analysis was determined using Colquhoun and Sakmann criterion ([Colquhoun and Sakmann, 1985]).

Po (single-channel open probability) (channel with high Po (Fig. S5B)): 0.70
Po (single-channel open probability) (channel with low Po (Fig. S5A)): 0.048
block of channel (Po) (high-Po mode): 20 ± 0.02%
block of channel (Po) (standard mode): 23 ± 0.05%
AC1, area of closed state 1 (V 20 mV, high-Po mode): 74%
AC2, area of closed state 2 (V 20 mV, high-Po mode): 15.5%
AC3, area of closed state 3 (V 20 mV, high-Po mode): 4.4%
AC4, area of closed state 4 (V 20 mV, high-Po mode): 4.9%
AC5, area of closed state 5 (V 20 mV, high-Po mode): 1.5%
τC1, mean lifetime of closed state 1 (V 20 mV, high-Po mode): 0.041 ms
τC2, mean lifetime of closed state 2 (V 20 mV, high-Po mode): 0.30 ms
τC3, mean lifetime of closed state 3 (V 20 mV, high-Po mode): 1.3 ms
τC4, mean lifetime of closed state 4 (V 20 mV, high-Po mode): 23 ms
τC5, mean lifetime of closed state 5 (V 20 mV, high-Po mode): 90 ms
τO, mean open time (V 20 mV, high-Po mode): 0.53 ms
AC1, area of closed state 1 (V 40 mV, high-Po mode): 75%
AC2, area of closed state 2 (V 40 mV, high-Po mode): 13.7%
AC3, area of closed state 3 (V 40 mV, high-Po mode): 3.3%
AC4, area of closed state 4 (V 40 mV, high-Po mode): 6.2%
AC5, area of closed state 5 (V 40 mV, high-Po mode): 2.0%
τC1, mean lifetime of closed state 1 (V 40 mV, high-Po mode): 0.083 ms
τC2, mean lifetime of closed state 2 (V 40 mV, high-Po mode): 0.36 ms
τC3, mean lifetime of closed state 3 (V 40 mV, high-Po mode): 4.8 ms
τC4, mean lifetime of closed state 4 (V 40 mV, high-Po mode): 39 ms
τC5, mean lifetime of closed state 5 (V 40 mV, high-Po mode): 160 ms
τO, mean open time (V 40 mV, high-Po mode): 0.69 ms
AC1, area of closed state 1 (V 60 mV, high-Po mode): 75%
AC2, area of closed state 2 (V 60 mV, high-Po mode): 13.9%
AC3, area of closed state 3 (V 60 mV, high-Po mode): 3.5%
AC4, area of closed state 4 (V 60 mV, high-Po mode): 5.7%
AC5, area of closed state 5 (V 60 mV, high-Po mode): 1.6%
τC1, mean lifetime of closed state 1 (V 60 mV, high-Po mode): 0.059 ms
τC2, mean lifetime of closed state 2 (V 60 mV, high-Po mode): 0.31 ms
τC3, mean lifetime of closed state 3 (V 60 mV, high-Po mode): 2.1 ms
τC4, mean lifetime of closed state 4 (V 60 mV, high-Po mode): 41 ms
τC5, mean lifetime of closed state 5 (V 60 mV, high-Po mode): 160 ms
τO, mean open time (V 60 mV, high-Po mode): 0.60 ms
AC1, area of closed state 1 (V 80 mV, high-Po mode): 76%
AC2, area of closed state 2 (V 80 mV, high-Po mode): 11.9%
AC3, area of closed state 3 (V 80 mV, high-Po mode): 1.9%
AC4, area of closed state 4 (V 80 mV, high-Po mode): 7.7%
AC5, area of closed state 5 (V 80 mV, high-Po mode): 2.6%
τC1, mean lifetime of closed state 1 (V 80 mV, high-Po mode): 0.055 ms
τC2, mean lifetime of closed state 2 (V 80 mV, high-Po mode): 0.32 ms
τC3, mean lifetime of closed state 3 (V 80 mV, high-Po mode): 2.9 ms
τC4, mean lifetime of closed state 4 (V 80 mV, high-Po mode): 78 ms
τC5, mean lifetime of closed state 5 (V 80 mV, high-Po mode): 490 ms
τO, mean open time (V 80 mV, high-Po mode): 0.49 ms
AC1, area of closed state 1 (V 100 mV, high-Po mode): 77%
AC2, area of closed state 2 (V 100 mV, high-Po mode): 9.2%
AC3, area of closed state 3 (V 100 mV, high-Po mode): 2.5%
AC4, area of closed state 4 (V 100 mV, high-Po mode): 7.5%
AC5, area of closed state 5 (V 100 mV, high-Po mode): 4.1%
τC1, mean lifetime of closed state 1 (V 100 mV, high-Po mode): 0.064 ms
τC2, mean lifetime of closed state 2 (V 100 mV, high-Po mode): 0.30 ms
τC3, mean lifetime of closed state 3 (V 100 mV, high-Po mode): 1.9 ms
τC4, mean lifetime of closed state 4 (V 100 mV, high-Po mode): 72 ms
τC5, mean lifetime of closed state 5 (V 100 mV, high-Po mode): 220 ms
τO, mean open time (V 100 mV, high-Po mode): 0.44 ms
AC1, area of closed state 1 (V −20 mV, high-Po mode): 81%
AC2, area of closed state 2 (V −20 mV, high-Po mode): 10.7%
AC3, area of closed state 3 (V −20 mV, high-Po mode): 2.5%
AC4, area of closed state 4 (V −20 mV, high-Po mode): 5.0%
AC5, area of closed state 5 (V −20 mV, high-Po mode): 0.6%
τC1, mean lifetime of closed state 1 (V −20 mV, high-Po mode): 0.061 ms
τC2, mean lifetime of closed state 2 (V −20 mV, high-Po mode): 0.35 ms
τC3, mean lifetime of closed state 3 (V −20 mV, high-Po mode): 2.5 ms
τC4, mean lifetime of closed state 4 (V −20 mV, high-Po mode): 45 ms
τC5, mean lifetime of closed state 5 (V −20 mV, high-Po mode): 260 ms
τO, mean open time (V −20 mV, high-Po mode): 0.54 ms
AC1, area of closed state 1 (V −40 mV, high-Po mode): 85%
AC2, area of closed state 2 (V −40 mV, high-Po mode): 9.3%
AC3, area of closed state 3 (V −40 mV, high-Po mode): 1.7%
AC4, area of closed state 4 (V −40 mV, high-Po mode): 4.2%
AC5, area of closed state 5 (V −40 mV, high-Po mode): 0.2%
τC1, mean lifetime of closed state 1 (V −40 mV, high-Po mode): 0.069 ms
τC2, mean lifetime of closed state 2 (V −40 mV, high-Po mode): 0.35 ms
τC3, mean lifetime of closed state 3 (V −40 mV, high-Po mode): 2.5 ms
τC4, mean lifetime of closed state 4 (V −40 mV, high-Po mode): 52 ms
τC5, mean lifetime of closed state 5 (V −40 mV, high-Po mode): 520 ms
τO, mean open time (V −40 mV, high-Po mode): 0.51 ms
AC1, area of closed state 1 (V −60 mV, high-Po mode): 85%
AC2, area of closed state 2 (V −60 mV, high-Po mode): 9.5%
AC3, area of closed state 3 (V −60 mV, high-Po mode): 1.2%
AC4, area of closed state 4 (V −60 mV, high-Po mode): 3.4%
AC5, area of closed state 5 (V −60 mV, high-Po mode): 0.6%
τC1, mean lifetime of closed state 1 (V −60 mV, high-Po mode): 0.082 ms
τC2, mean lifetime of closed state 2 (V −60 mV, high-Po mode): 0.30 ms
τC3, mean lifetime of closed state 3 (V −60 mV, high-Po mode): 1.6 ms
τC4, mean lifetime of closed state 4 (V −60 mV, high-Po mode): 44 ms
τC5, mean lifetime of closed state 5 (V −60 mV, high-Po mode): 230 ms
τO, mean open time (V −60 mV, high-Po mode): 0.35 ms
AC1, area of closed state 1 (V −80 mV, high-Po mode): 89%
AC2, area of closed state 2 (V −80 mV, high-Po mode): 6.0%
AC3, area of closed state 3 (V −80 mV, high-Po mode): 1.0%
AC4, area of closed state 4 (V −80 mV, high-Po mode): 2.8%
AC5, area of closed state 5 (V −80 mV, high-Po mode): 0.8%
τC1, mean lifetime of closed state 1 (V −80 mV, high-Po mode): 0.110 ms
τC2, mean lifetime of closed state 2 (V −80 mV, high-Po mode): 0.37 ms
τC3, mean lifetime of closed state 3 (V −80 mV, high-Po mode): 9.5 ms
τC4, mean lifetime of closed state 4 (V −80 mV, high-Po mode): 58 ms
τC5, mean lifetime of closed state 5 (V −80 mV, high-Po mode): 140 ms
τO, mean open time (V −80 mV, high-Po mode): 0.27 ms
AC1, area of closed state 1 (V −100 mV, high-Po mode): 88%
AC2, area of closed state 2 (V −100 mV, high-Po mode): 8.0%
AC3, area of closed state 3 (V −100 mV, high-Po mode): 0.6%
AC4, area of closed state 4 (V −100 mV, high-Po mode): 2.2%
AC5, area of closed state 5 (V −100 mV, high-Po mode): 1.0%
τC1, mean lifetime of closed state 1 (V −100 mV, high-Po mode): 0.110 ms
τC2, mean lifetime of closed state 2 (V −100 mV, high-Po mode): 0.37 ms
τC3, mean lifetime of closed state 3 (V −100 mV, high-Po mode): 3.0 ms
τC4, mean lifetime of closed state 4 (V −100 mV, high-Po mode): 40 ms
τC5, mean lifetime of closed state 5 (V −100 mV, high-Po mode): 140 ms
τO, mean open time (V −100 mV, high-Po mode): 0.20 ms
SMILES: NCCC(Oc1ccc(C(F)(F)F)cc1)c1ccccc1 (stereo not drawn) [NFx, norfluoxetine]
